As a reminder, the IC50 is the concentration at which inhibition is half-maximal.

Experimental findings from patent US20120053165A1, “Novel Phenyl Imidazoles and Phenyl Triazoles As Gamma-Secretase Modulators” (Pfizer Inc., priority 2009, published 2012) are described below.

Where a name gives a salt, the structure may show the parent alone. Read-outs that look alike come from different tables or passages of the source.

The test system of the assay is production of amyloid beta protein Aβ(1-42) in human WT-APP overexpressing CHO cells.
The mark [1] stands for this setting: read-out: Aβ 42 IC50, Geometric mean of 2-8 determinations, human WT-APP overexpressing CHO cells.
[2] abbreviates: Homo sapiens, CHO, read-out: Aβ 42 IC50, Geometric mean of 2-8 determinations, human WT-APP overexpressing CHO cells.
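Further: Aβ(1-42) released into conditioned medium captured by ELISA after roughly 24 h compound exposure, vehicle and inhibitor controls defining maximal and minimal inhibition.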

Regarding `COc1cc(C(=O)NCC2CCc3ccccc3C2)ccc1-n1cnc(C)c1` (stereo not drawn) [Example 113, 3-methoxy-4-(4-methyl-1H-imidazol-1-yl)-N-(1,2,3,4-tetrahydro-naphthalen-2-ylmethyl) benzamide], the IC50 under setting [1] came out at 784 nM. Take `COc1cc(C(=O)NC(C)COc2c(C)cccc2C)ccc1-n1cnc(C)c1` (stereo not drawn) [Example 56, N-[2-(2,6-dimethyl-phenoxy)-1-methylethyl]-3-methoxy-4-(4-methyl-1H-imidazol-1-yl) benzamide]: the IC50 under setting [1] amounted to 337 nM. For the compound `COc1cc(C(=O)NC(c2ccccc2Cl)c2nc3ccccc3n2C)ccc1-n1cnc(C)c1` (stereo not drawn) [Example 96, N-[(2-chlorophenyl)(1-methyl-1H-benzimidazol-2-yl)methyl]-3-methoxy-4-(4-methyl-1H-imidazol-1-yl) benzamide], the IC50 under setting [1] is 630 nM. On the same count and under the same terms, the result for `COc1cc(C(=O)NC(C)(C)c2cccc(C(F)(F)F)c2)ccc1-n1cnc(C)c1` [Example 32, 3-methoxy-4-(4-methyl-1H-imidazol-1-yl)-N-{1-methyl-1-[3-(trifluoro-methyl)phenyl]ethyl} benzamide] reads 619 nM. “N-{[3-(3- chlorophenyl)- 4,5-dihydro- isoxazol-5-yl] methyl}-3- methoxy-4- (4-methyl-1H- imidazol-1-yl) benzamide [Example 12]”: the IC50 under setting [1] is 1310 nM. On the same count and under the same terms, with `COc1cc(C(=O)NCc2ccccc2OC(F)(F)F)ccc1-n1cnc(C)c1` [Example 75, 3-methoxy-4-(4-methyl-1H-imidazol-1-yl)-N-[2-(trifluoromethoxy)benzyl] benzamide] the figure was 469 nM; with `COc1cc(C(=O)N(C)Cc2cccc3ccccc23)ccc1-n1cnc(C)c1` [Example 118, 3-methoxy-N-methyl-4-(4-methyl-1H-imidazol-1-yl)-N-(1-naphthylmethyl) benzamide], 837 nM; with `COc1cc(C(=O)NCc2noc3ccc(Cl)cc23)ccc1-n1cnc(C)c1` [Example 17, N-[(5-chloro-1,2-benz-isoxazol-3-yl)methyl]-3-methoxy-4-(4-methyl-1H-imidazol-1-yl) benzamide], 371 nM. Take `COc1cc(C(=O)N[C@H](c2ccccc2)[C@@H](O)c2ccccc2)ccc1-n1cnc(C)c1` [Example 80, N-[(1R,2S)-2-hydroxy-1,2-diphenylethyl]-3-methoxy-4-(4-methyl-1H-imidazol-1-yl) benzamide]: the IC50 under setting [1] was found to be 501 nM.

Take `COc1cc(C(=O)NCc2ccc(C(=O)c3ccccc3)cc2)ccc1-n1cnc(C)c1` [Example 43, N-(4-benzoyl-benzyl)-3-methoxy-4-(4-methyl-1H-imidazol-1-yl) benzamide]: the IC50 under setting [1] is 582 nM.

On to `COc1cc(C(=O)N2CC(COc3ccc(F)c(C)c3Cl)C2)ccc1-n1cnc(C)c1` [Example 136, 1-[4-({3-[(2-chloro-4-fluoro-3-methyl-phenoxy)methyl]azetidin-1-yl}carbonyl)-2-methoxyphenyl]-4-methyl-1H-imidazole trifluoroacetate salt], for which the IC50 (Homo sapiens, CHO, read-out: Aβ 42 IC50, Geometric mean of at least 2 determinations, human WT-APP overexpressing CHO cells) stood at 311 nM. Consider `COc1cc(C(=O)NC2CCc3ccccc3C2)ccc1-n1cnc(C)c1` (stereo not drawn) [Example 114, 3-methoxy-4-(4-methyl-1H-imidazol-1-yl)-N-(1,2,3,4-tetrahydro-naphthalen-2-yl) benzamide], for which the IC50 under setting [1] came out at 793 nM.

In the case of `COc1cc(C(=O)NCCCCc2ccccc2)ccc1-n1cnc(C)c1` [Example 61, 3-methoxy-4-(4-methyl-1H-imidazol-1-yl)-N-(4-phenyl-butyl)benzamide], the IC50 under setting [2] amounted to 356 nM. Turning to `COc1cc(C(=O)NCCc2c(C)[nH]c3c(Cl)cc(Cl)cc23)ccc1-n1cnc(C)c1` [Example 51, N-[2-(5,7-dichloro-2-methyl-1H-indol-3-yl)ethyl]-3-methoxy-4-(4-methyl-1H-imidazol-1-yl)benzamide], where the note is “Homo sapiens, CHO, read-out: Aβ 42 IC50”, the half-inhibitory concentration (IC50) came to 189 nM. Consider `COc1cc(C(=O)NCc2cccc(C(F)(F)F)c2)ccc1-n1cnc(C)c1` [Example 14, 3-methoxy-4-(4-methyl-1H-imidazol-1-yl)-N-[3-(trifluoro-methyl)benzyl] benzamide], for which the IC50 under setting [1] came to 447 nM.

Take `COc1cc(C(=O)N[C@@H]2CCC[C@@H]2Cc2ccccc2)ccc1-n1cnc(C)c1` [Example 72, N-[(1R,2R)-2-benzylcyclopentyl]-3-methoxy-4-(4-methyl-1H-imidazol-1-yl) benzamide]: the half-inhibitory concentration (IC50) under setting [1] was found to be 442 nM. On to `COc1cc(C(=O)N2CCCC[C@H]2c2ccc(C(F)(F)F)cc2)ccc1-n1cnc(C)c1` [Example 23, (2S)-1-[3-methoxy-4-(4-methyl-1H-imidazol-1-yl)benzoyl]-2-[4-(trifluoro-methyl)phenyl] piperidine], for which the IC50 under setting [2] was determined as 838 nM.

For the compound `COc1cc(C(=O)N2CCC(Oc3cccc(C(F)(F)F)c3)CC2)ccc1-n1cnc(C)c1` [Example 119, 1-[3-methoxy-4-(4-methyl-1H-imidazol-1-yl)benzoyl]-4-[3-(trifluoromethyl)phenoxy]piperidine], the IC50 under setting [2] stood at 847 nM.

Consider `COc1cc(C(=O)NCc2nc(-c3ccc(Cl)cc3)no2)ccc1-n1cnc(C)c1` [Example 45, N-{[3-(4-chlorophenyl)-1,2,4-oxadiazol-5-yl]methyl}-3-methoxy-4-(4-methyl-1H-imidazol-1-yl) benzamide, formic acid salt], for which, under setting [1], the half-maximal inhibitory concentration (IC50) was 730 nM.

As for `COc1cc(C(=O)N[C@@H]2CCC[C@@H]2Cc2cccc(F)c2)ccc1-n1cnc(C)c1` [Example 95, N-[(1R,2R)-2-(3-fluorobenzyl)cyclopentyl]-3-methoxy-4-(4-methyl-1H-imidazol-1-yl) benzamide], the concentration for half-maximal inhibition (IC50) under setting [1] is 627 nM. For `COc1cc(C(=O)NCc2ccc(F)c(C(F)(F)F)c2)ccc1-n1cnc(C)c1` [Example 66, N-[4-fluoro-3-(trifluoromethyl)benzyl]-3-methoxy-4-(4-methyl-1H-imidazol-1-yl) benzamide], under setting [1], the concentration for half-maximal inhibition (IC50) is 410 nM.

Regarding `COc1cc(C(=O)NCC2C3CC4CC(C3)CC2C4)ccc1-n1cnc(C)c1` (stereo not drawn) [Example 40, N-(adamantan-2-ylmethyl)-3-methoxy-4-(4-methyl-1H-imidazol-1-yl)benzamide], the half-inhibitory concentration (IC50) (Homo sapiens, CHO, read-out: Aβ 42 IC50, Single IC50 determination, human WT-APP overexpressing CHO cells) is 185 nM. Take `COc1cc(C(=O)NC2(c3ccc(Cl)cc3)CC2)ccc1-n1cnc(C)c1` [Example 78, N-[1-(4-chlorophenyl)cyclopropyl]-3-methoxy-4-(4-methyl-1H-imidazol-1-yl) benzamide]: the IC50 under setting [1] came to 488 nM. Regarding `COc1cc(C(=O)NCC2(c3ccc(Cl)cc3)CCCC2)ccc1-n1cnc(C)c1` [Example 36, N-{[1-(4-chlorophenyl)cyclopentyl]methyl}-3-methoxy-4-(4-methyl-1H-imidazol-1-yl) benzamide], the half-maximal inhibitory concentration (IC50) under setting [1] was 209 nM. Still for that read-out and setting: the result for `COc1cc(C(=O)NCc2ccc(Cl)c(Cl)c2)ccc1-n1cnc(C)c1` [Example 67, N-(3,4-dichlorobenzyl)-3-methoxy-4-(4-methyl-1H-imidazol-1-yl) benzamide] reads 410 nM. As to `COc1cc(C(=O)N2CC(c3cccc(Cl)c3)C2)ccc1-n1cnc(C)c1` [Example 18, 1-(4-{[3-(3-chlorophenyl)azetidin-1-yl]carbonyl}-2-methoxy-phenyl)-4-methyl-1H-imidazole], under setting [2], the half-maximal inhibitory concentration (IC50) was determined as 660 nM. Regarding `C#CCOc1cc(C(=O)NCCc2cccc(Cl)c2)ccc1-n1cnc(C)c1` [Example 3, N-[2-(3-chlorophenyl)ethyl]-4-(4-methyl-1H-imidazol-1-yl)-3-(prop-2-yn-1-yloxy)benzamide], under “Homo sapiens, CHO, read-out: GM Aβ 42B IC50, Geometric Mean of 2-8 Determinations, human WT-APP overexpressing CHO cells”, the IC50 amounted to 341 nM.
